Reference: ChEMBL document CHEMBL1157885, “The discovery and structure-activity relationships of 2-(piperidin-3-yl)-1H-benzimidazoles as selective, CNS penetrating H1-antihistamines for insomnia” (Bioorg Med Chem Lett, 2010)
pIC50, pKi: −log10 of the molar value.

Key:
Histamine H1 receptor = Histamine H1 receptor (Homo sapiens, UniProt P35367); assay: Displacement of [3H]pyrilamine from human histamine H1 receptor expressed in CHO Flp-In cells by liquid scintillation counting; type: cell-based
[1] = molecular target: T1, Muscarinic acetylcholine receptor M1 (Homo sapiens, UniProt P11229); assay: Displacement of [3H]N-methyl Scopolamine from human muscarinic M1 receptor expressed in CHO Flp-In cells by liquid scintillation counting; type: cell-based
T1 sequence (P11229 whole entry): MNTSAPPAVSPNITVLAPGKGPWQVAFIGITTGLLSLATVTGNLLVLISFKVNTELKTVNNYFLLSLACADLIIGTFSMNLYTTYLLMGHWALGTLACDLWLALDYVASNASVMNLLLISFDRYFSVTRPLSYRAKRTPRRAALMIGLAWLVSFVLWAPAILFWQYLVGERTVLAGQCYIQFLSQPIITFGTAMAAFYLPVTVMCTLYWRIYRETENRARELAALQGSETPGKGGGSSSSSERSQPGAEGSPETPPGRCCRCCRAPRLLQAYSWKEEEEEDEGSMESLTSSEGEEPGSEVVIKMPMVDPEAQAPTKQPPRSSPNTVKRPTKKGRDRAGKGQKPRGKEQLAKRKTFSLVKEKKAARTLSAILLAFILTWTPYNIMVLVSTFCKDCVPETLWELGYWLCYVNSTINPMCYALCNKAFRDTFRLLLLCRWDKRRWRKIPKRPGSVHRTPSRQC

Cytochrome P450 2D6 = Cytochrome P450 2D6 (Homo sapiens, UniProt P10635); assay: Inhibition of CYP2D6; type: ADME
Sequence of Cytochrome P450 2D6 (P10635 whole entry): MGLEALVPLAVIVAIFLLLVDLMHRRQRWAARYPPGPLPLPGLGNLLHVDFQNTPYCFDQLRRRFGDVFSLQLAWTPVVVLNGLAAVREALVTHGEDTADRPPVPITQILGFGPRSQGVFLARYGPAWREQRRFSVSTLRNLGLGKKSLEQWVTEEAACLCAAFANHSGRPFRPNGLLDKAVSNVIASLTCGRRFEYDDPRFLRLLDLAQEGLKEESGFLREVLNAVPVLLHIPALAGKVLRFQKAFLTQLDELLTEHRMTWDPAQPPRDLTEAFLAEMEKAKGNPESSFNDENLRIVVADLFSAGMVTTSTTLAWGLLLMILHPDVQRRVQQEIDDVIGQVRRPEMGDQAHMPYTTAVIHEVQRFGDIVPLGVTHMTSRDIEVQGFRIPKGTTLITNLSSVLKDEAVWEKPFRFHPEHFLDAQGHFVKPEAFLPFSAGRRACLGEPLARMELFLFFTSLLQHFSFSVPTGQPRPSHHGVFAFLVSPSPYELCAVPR

Cytochrome P450 3A4 = Cytochrome P450 3A4 (Homo sapiens, UniProt P08684); assay: (§1) Inhibition of CYP3A4; type: ADME
Sequence of Cytochrome P450 3A4 (P08684 whole entry): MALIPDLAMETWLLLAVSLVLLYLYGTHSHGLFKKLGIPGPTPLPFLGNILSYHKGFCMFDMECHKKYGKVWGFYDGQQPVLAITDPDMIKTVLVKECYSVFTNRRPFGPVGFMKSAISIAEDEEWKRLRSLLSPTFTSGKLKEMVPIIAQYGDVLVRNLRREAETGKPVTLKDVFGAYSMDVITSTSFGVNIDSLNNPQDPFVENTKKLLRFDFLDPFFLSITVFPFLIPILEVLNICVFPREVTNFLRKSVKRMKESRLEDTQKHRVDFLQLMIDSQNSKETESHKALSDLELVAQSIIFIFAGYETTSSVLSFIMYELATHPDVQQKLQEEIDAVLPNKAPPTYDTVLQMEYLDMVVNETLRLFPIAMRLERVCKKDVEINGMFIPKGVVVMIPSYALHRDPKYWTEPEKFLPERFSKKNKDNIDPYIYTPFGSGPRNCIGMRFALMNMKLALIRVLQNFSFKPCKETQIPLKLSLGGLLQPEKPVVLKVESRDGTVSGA

[2] = molecular target: T2, Voltage-gated inwardly rectifying potassium channel KCNH2 (Homo sapiens, UniProt Q12809); assay: Inhibition of human ERG channel by electrophysiology assay
T2 sequence (Q12809 whole entry): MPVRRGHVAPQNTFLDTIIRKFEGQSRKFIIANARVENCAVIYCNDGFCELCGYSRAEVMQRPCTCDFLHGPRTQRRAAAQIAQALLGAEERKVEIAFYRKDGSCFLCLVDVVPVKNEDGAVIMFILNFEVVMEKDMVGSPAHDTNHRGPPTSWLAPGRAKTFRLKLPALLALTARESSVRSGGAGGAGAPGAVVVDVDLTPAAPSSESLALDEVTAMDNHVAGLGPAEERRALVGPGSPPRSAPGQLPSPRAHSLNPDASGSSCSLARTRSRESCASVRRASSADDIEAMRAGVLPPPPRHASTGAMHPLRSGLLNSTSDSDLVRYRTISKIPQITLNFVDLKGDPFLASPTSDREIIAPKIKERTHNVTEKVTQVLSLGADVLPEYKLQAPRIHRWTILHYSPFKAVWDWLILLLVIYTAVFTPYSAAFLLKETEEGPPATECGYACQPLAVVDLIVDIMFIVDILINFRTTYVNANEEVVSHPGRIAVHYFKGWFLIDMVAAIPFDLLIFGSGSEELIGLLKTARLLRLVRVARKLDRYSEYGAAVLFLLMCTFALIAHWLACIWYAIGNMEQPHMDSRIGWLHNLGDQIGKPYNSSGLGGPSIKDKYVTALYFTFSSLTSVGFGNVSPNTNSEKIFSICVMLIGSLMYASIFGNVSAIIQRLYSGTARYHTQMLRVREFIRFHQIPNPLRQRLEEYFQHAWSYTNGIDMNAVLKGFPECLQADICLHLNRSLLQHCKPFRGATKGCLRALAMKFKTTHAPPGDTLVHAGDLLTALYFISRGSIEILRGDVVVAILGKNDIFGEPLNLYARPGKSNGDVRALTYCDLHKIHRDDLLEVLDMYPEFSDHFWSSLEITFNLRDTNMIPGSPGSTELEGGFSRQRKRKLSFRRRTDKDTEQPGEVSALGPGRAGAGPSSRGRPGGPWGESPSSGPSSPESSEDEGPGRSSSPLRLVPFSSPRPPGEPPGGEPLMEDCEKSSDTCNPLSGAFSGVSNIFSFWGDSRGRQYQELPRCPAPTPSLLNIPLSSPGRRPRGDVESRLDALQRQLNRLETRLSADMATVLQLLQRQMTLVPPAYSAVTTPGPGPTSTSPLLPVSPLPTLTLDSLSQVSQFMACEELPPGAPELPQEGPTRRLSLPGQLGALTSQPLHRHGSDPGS

Liver microsomes = assay: Metabolic stability in human liver microsomes; type: ADME, Microsome
[3] = molecular target: T2, Voltage-gated inwardly rectifying potassium channel KCNH2; assay: Displacement of [3H]dofetolide from human ERG channel expressed in HEK293 cells by liquid scintillation counting; type: cell-based
[4] = Solubility in 0.15 M KCl buffer at pH 7.4 by potentiometric method; type: physicochemical
[5] = molecular target: T2, Voltage-gated inwardly rectifying potassium channel KCNH2; assay: Inhibition of human ERG channel by patch clamp assay
CYP3A4 = CYP3A4 (Homo sapiens, UniProt P08684); assay: as §1; type: ADME
Sequence of CYP3A4 (P08684 whole entry): as the sequence (P08684 whole entry) above

hERG (KCNH2) = hERG (KCNH2) (Homo sapiens, UniProt Q12809); assay: Inhibition of human ERG channel at 10 uM by patch clamp assay
Sequence of hERG (KCNH2) (Q12809 whole entry): as the sequence (Q12809 whole entry) above

Sequence of Histamine H1 receptor (P35367 whole entry): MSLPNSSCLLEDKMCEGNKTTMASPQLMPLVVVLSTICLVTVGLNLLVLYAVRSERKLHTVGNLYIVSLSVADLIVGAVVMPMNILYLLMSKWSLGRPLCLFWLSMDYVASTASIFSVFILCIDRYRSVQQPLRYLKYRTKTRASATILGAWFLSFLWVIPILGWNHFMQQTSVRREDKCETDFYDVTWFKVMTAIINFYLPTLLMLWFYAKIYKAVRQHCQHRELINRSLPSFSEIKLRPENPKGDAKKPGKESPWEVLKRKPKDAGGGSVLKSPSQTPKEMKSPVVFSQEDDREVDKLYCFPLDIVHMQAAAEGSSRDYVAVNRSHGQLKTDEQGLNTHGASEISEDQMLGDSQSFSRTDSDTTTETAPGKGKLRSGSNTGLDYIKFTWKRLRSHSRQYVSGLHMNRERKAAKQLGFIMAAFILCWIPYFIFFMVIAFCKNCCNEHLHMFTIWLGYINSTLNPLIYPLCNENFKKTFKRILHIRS

With `CCOCCn1c(N2CC[C@H](N(C)C)C2)nc2ccccc21` the pKi (Histamine H1 receptor) was 8.32, the pKi [1] was 5.82 and the pIC50 (Cytochrome P450 2D6) was < 5.00. The pIC50 (Cytochrome P450 3A4) was < 5.30, the pIC50 [2] was 7.68 and the Stability (Liver microsomes) was “Stable”.

With `CCOCCn1c(C2CCCN(C)C2)nc2ccccc21` (configuration not stated) the pIC50 (Cytochrome P450 3A4) was < 5.30.

In the case of `CCOCCn1c([C@H]2CCCN(C)C2)nc2ccccc21`, the “inhibition (INH)” value (Cytochrome P450 3A4) was “Not Active”.

With `CC(C)N1CCCC(c2nc3ccccc3n2Cc2ccc(F)cc2)C1` (configuration not stated) the pIC50 (Cytochrome P450 3A4) was < 5.30 and the pKi [3] was 5.86.

In the case of `CN1CCCC(c2nc3ccccc3n2CCOc2ccccc2)C1` (configuration not stated), the pIC50 (Cytochrome P450 3A4) was < 5.30.

For `CN1CCCC(c2nc3ccccc3n2CC2CCCO2)C1` (configuration not stated), the pIC50 (Cytochrome P450 3A4) was < 5.30 and the pKi [3] was 6.20.

With `CN1CCCC(c2nc3ccccc3n2Cc2ccccn2)C1` (configuration not stated) the pIC50 (Cytochrome P450 3A4) was < 5.30 and the pKi [3] was < 5.00.

In the case of `Cc1cnn(C2CCN(c3nc4ccccc4n3Cc3ccc(F)cc3)CC2)c1`, the solubility [4] was < 10 µg/mL.

For `CCOCCn1c(C2CCCN(C3CCCCC3)C2)nc2ccccc21` (configuration not stated), the pIC50 (Cytochrome P450 3A4) was < 5.30 and the pKi [3] was < 5.00.

In the case of `CCOCCn1c([C@@H]2CCCN(C3CCOCC3)C2)nc2ccccc21`, the “inhibition (INH)” value (Cytochrome P450 3A4) was “Not Active”, the pKi [3] was < 5.52 and the pIC50 [5] was 5.68.

For `COc1ccc(Cn2c(N3CC[C@@H](N(C)C)C3)nc3ccccc32)cc1`, the pKi (Histamine H1 receptor) was 8.08, the pKi [1] was 5.60 and the pIC50 (Cytochrome P450 2D6) was < 5.00. The pIC50 (Cytochrome P450 3A4) was < 5.30, the pIC50 [2] was 6.63 and the Stability (Liver microsomes) was “Stable”.

With `CCOCCn1c([C@@H]2CCCN(C)C2)nc2ccccc21` the “inhibition (INH)” value (Cytochrome P450 3A4) was “Not Active”.

In the case of `CCOCCn1c(C2CCCN(C3CCOCC3)C2)nc2ccccc21` (configuration not stated), the pIC50 (Cytochrome P450 3A4) was < 5.30 and the pKi [3] was < 5.52.

In the case of `CN1CCC[C@H](c2nc3ccccc3n2Cc2ccccn2)C1`, the “inhibition (INH)” value (Cytochrome P450 3A4) was “Not Active” and the pKi [3] was < 5.00.

In the case of `Fc1ccc(Cn2c(C3CCCN(C4CCCCC4)C3)nc3ccccc32)cc1` (configuration not stated), the pIC50 (Cytochrome P450 3A4) was < 5.30 and the pKi [3] was 6.03.

For `COc1ccc(Cn2c(C3CCCN(C)C3)nc3ccccc32)cc1` (configuration not stated), the pIC50 (Cytochrome P450 3A4) was < 5.30 and the pKi [3] was < 5.30.

In the case of `CN(CC1CCOCC1)C1CCN(c2nc3ccccc3n2Cc2ccc(F)cc2)CC1`, the pKi [1] was 5.32 and the pIC50 (CYP3A4) was < 5.30.

In the case of `COc1ccc(Cn2c(C3CCCN(C4CCOCC4)C3)nc3ccccc32)cc1` (configuration not stated), the pIC50 (Cytochrome P450 3A4) was < 5.30 and the pKi [3] was < 5.00.

For `Cc1csc(Cn2c(C3CCCN(C4CCOCC4)C3)nc3ccccc32)n1` (configuration not stated), the pIC50 (Cytochrome P450 3A4) was < 5.30 and the pKi [3] was < 5.52.

For `COc1ccc(Cn2c(C3CCCN(C4CCCCC4)C3)nc3ccccc32)cc1` (configuration not stated), the pKi [3] was 5.74.

For `Cc1csc(Cn2c(C3CCCN(C)C3)nc3ccccc32)n1` (configuration not stated), the pIC50 (Cytochrome P450 3A4) was < 5.30 and the pKi [3] was < 5.00.

With `COc1ccc(Cn2c(C3CCCN(C(C)C)C3)nc3ccccc32)cc1` (configuration not stated) the pIC50 (Cytochrome P450 3A4) was < 5.30 and the pKi [3] was 5.58.

With `Cc1csc(Cn2c(C3CCCN(C4CCCCC4)C3)nc3ccccc32)n1` (configuration not stated) the pIC50 (Cytochrome P450 3A4) was < 5.30 and the pKi [3] was 5.93.

For `CN1CCC[C@@H](c2nc3ccccc3n2Cc2ccccn2)C1`, the “inhibition (INH)” value (Cytochrome P450 3A4) was “Not Active”, the pKi [3] was 4.99 and the inhibition at 10 µM (hERG (KCNH2)) was 39%.
